Assay results: patent US20090069320A1, “Substituted 4-Amino-Quinazoline Compounds with Metabotropic Glutamate Receptor Regulating Activity and Uses Thereof” (Gruenenthal GmbH, priority 2006, published 2009)
Structures can show the parent of a compound that is named as a salt.

Molecular target: T1, mGluR5 receptor (Sus scrofa, UniProt I3LUI7)
T1 construct: 450 μg of protein from brain homogenate with 5 nM ^3[H]-MPEP; from tissue; host or cells: pig brain halves without medulla, cerebellum and pons
Experiment: [3H]-MPEP mGluR5 receptor binding assay (pig brain homogenate)
Details: 5 nM [3H]-MPEP; for inhibition at 10 µM / % Inhibition of mGluR5 Receptor (pig) [^3H]-MPEP Bond at 10 μM: 10 μM compound; for inhibition at 10 µM: read-out: % Inhibition of mGluR5 Receptor (pig) [^3H]-MPEP Bond at 10 μM; for IC50: read-out: IC50 mGluR5 Receptor (pig) [^3H]-MPEP Bond
Procedure, shortened: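 Radioligand displacement of 5 nM [3H]-MPEP from pig brain homogenate (450 μg protein; medulla, cerebellum and pons removed) in 20 mM Hepes pH 8.0. Compounds were tested at 10 μM, incubated 60 min at room temperature, then filtered and counted by scintillation. Non-specific binding was defined with 10 μM MPEP.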

T1 sequence (I3LUI7 19-1212): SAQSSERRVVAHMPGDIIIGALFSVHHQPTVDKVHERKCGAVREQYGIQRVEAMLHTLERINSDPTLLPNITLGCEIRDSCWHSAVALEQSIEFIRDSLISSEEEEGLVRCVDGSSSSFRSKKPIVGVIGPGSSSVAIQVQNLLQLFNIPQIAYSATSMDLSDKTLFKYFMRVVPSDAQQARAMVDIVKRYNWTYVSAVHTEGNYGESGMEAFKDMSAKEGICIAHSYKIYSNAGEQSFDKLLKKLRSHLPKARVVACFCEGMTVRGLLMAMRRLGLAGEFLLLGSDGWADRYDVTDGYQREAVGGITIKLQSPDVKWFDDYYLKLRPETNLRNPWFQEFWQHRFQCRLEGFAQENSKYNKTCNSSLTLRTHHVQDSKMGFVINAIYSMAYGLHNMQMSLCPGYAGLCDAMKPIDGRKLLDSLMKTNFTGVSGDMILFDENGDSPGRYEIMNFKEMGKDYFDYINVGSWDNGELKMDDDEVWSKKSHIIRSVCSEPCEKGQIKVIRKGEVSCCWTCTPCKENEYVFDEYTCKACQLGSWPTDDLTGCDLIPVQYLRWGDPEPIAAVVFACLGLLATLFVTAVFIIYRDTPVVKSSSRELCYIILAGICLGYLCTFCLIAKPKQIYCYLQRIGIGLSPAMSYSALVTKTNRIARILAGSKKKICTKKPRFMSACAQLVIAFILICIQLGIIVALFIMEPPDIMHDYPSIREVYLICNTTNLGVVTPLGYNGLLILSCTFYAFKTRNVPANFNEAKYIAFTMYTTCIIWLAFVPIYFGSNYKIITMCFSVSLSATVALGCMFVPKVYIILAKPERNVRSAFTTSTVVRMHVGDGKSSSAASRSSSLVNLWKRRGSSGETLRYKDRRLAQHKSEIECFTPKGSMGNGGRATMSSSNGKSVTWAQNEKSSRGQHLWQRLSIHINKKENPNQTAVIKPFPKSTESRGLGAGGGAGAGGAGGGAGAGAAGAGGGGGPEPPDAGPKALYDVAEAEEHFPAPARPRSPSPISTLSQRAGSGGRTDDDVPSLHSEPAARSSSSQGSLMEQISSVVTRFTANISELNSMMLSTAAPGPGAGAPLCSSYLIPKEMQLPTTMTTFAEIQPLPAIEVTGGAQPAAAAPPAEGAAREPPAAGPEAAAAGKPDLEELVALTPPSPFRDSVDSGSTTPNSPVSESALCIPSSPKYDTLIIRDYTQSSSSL

| Structure (SMILES) | inhibition at 10 µM [%] | other results |
| --- | --- | --- |
| CC(=O)N(Cc1ccccc1)Cc1cccc(-c2ccc3ncnc(NC4CC4)c3c2)c1 [Example 219, N-benzyl-N-[3-(4-cyclopropylamino-quinazolin-6-yl)-benzyl]-acetamide; hydrochloride] | 45 |  |
| Cc1nc(NC2CC2)c2cc(-c3ccc(F)c(CN(C(=O)CCc4ccccc4)C4CC4)c3)ccc2n1 [Example 601, N-cyclopropyl-N-(5-(4-(cyclopropylamino)-2-methylquinazolin-6-yl)-2-fluorobenzyl)-3-phenylpropanamide] | 78 |  |
| O=C1CCC(=O)N1Cc1cccc(-c2ccc3ncnc(N4CCCC4)c3c2)c1 [Example 880, 1-(3-(4-(pyrrolidin-1-yl)quinazolin-6-yl)benzyl)pyrrolidine-2,5-dione] |  | IC50: 4300 nM |
| COc1ccc(C(=O)N(Cc2cccc(-c3ccc4ncnc(N5CCCC5)c4c3)c2)C2CC2)cc1 [Example 142, N-cyclopropyl-4-methoxy-N-[3-(4-pyrrolidin-1-yl-quinazolin-6-yl)-benzyl]-benzamide] | 51 |  |
| CNc1ncnc2ccc(-c3cccc(CN4C(=O)CCC4=O)c3)cc12 [Example 198, 1-[3-(4-methylamino-quinazolin-6-yl)-benzyl]-pyrrolidine-2,5-dione] |  | IC50: 5190 nM |
| COc1ccc(C(=O)N(Cc2cccc(-c3ccc4ncnc(NC5CC5)c4c3)c2)C2CC2)cc1 [Example 171, N-cyclopropyl-N-[3-(4-cyclopropylamino-quinazolin-6-yl)-benzyl]-4-methoxy-benzamide] | 100 |  |
| CCCN(Cc1cccc(-c2ccc3ncnc(Nc4ccccc4)c3c2)c1)C(=O)c1sccc1C [Example 110, 3-methyl-thiophene-2-carboxylic acid [3-(4-phenylamino-quinazolin-6-yl)-benzyl]-propyl-amide] | 43 |  |
| CCCC(=O)N(Cc1cccc(-c2ccc3ncnc(NC4CC4)c3c2)c1)C1CC1 [Example 168, N-cyclopropyl-N-[3-(4-cyclopropylamino-quinazolin-6-yl)-benzyl]-butyramide] | 90 |  |
| CNc1ncnc2ccc(-c3cccc(CN(C(=O)c4ccno4)c4ccccc4F)c3)cc12 [Example 671, N-(2-fluorophenyl)-N-(3-(4-(methylamino)quinazolin-6-yl)benzyl)isoxazole-5-carboxamide] | 40 |  |
| Cc1nc(NC2CC2)c2cc(-c3cccc(CN(C(=O)c4ccccc4C(F)(F)F)C4CC4)c3)ccc2n1 [Example 666, N-cyclopropyl-N-(3-(4-(cyclopropylamino)-2-methylquinazolin-6-yl)benzyl)-2-(trifluoromethyl)benzamide] | 43 |  |
| O=S(=O)(c1cccc(C(F)(F)F)c1)N(Cc1cc(-c2ccc3ncnc(NC4CC4)c3c2)ccc1Cl)C1CC1 [Example 778, N-(2-chloro-5-(4-(cyclopropylamino)quinazolin-6-yl)benzyl)-N-cyclopropyl-3-(trifluoromethyl)benzole sulfonamide] |  | % Inhibition of mGluR5 Receptor (pig) [^3H]-MPEP Bond at 10 μM: 84% |
| O=S(=O)(c1c(F)c(F)c(F)c(F)c1F)N(Cc1cc(-c2ccc3ncnc(NC4CC4)c3c2)ccc1F)C1CC1 [Example 399, N-cyclopropyl-N-(5-(4-(cyclopropylamino)quinazolin-6-yl)-2-fluorobenzyl)-2,3,4,5,6-pentafluorobenzole sulfonamide] |  | % Inhibition of mGluR5 Receptor (pig) [^3H]-MPEP Bond at 10 μM: 39% |
| O=C(c1ccc(Br)s1)N(Cc1cccc(-c2ccc3ncnc(NC4CC4)c3c2)c1)C1CC1 [Example 166, 5-bromo-thiophene-2-carboxylic acid cyclopropyl-[3-(4-cyclopropylamino-quinazolin-6-yl)-benzyl]-amide] | 86 |  |
| O=C(c1ccc(F)cc1F)N(Cc1cccc(-c2cc(F)c3ncnc(NC4CC4)c3c2)c1)C1CC1 [Example 619, N-cyclopropyl-N-(3-(4-(cyclopropylamino)-8-fluoroquinazolin-6-yl)benzyl)-2,4-difluorobenzamide] | 98 |  |
| Cc1cccc(CNc2ncnc3ccc(-c4cccc(CN(C(=O)c5cc(C)nn5C)C5CC5)c4)cc23)c1 [Example 402, N-cyclopropyl-1,3-dimethyl-N-(3-(4-(3-methylbenzylamino)quinazolin-6-yl)benzyl)-1H-pyrazole-5-carboxamide] | 34 |  |
| O=C1COCC(=O)N1Cc1cc(-c2ccc3ncnc(NC4CC4)c3c2)ccc1F [Example 189, 4-(5-(4-(cyclopropylamino)quinazolin-6-yl)-2-fluorobenzyl)morpholine-3,5-dione] |  | IC50: 210 nM |
| O=C(c1ccc(Cl)cc1)N(Cc1cccc(-c2ccc3ncnc(NC4CC4)c3c2)c1)C1CC1 [Example 160, 4-chloro-N-cyclopropyl-N-[3-(4-cyclopropylamino-quinazolin-6-yl)-benzyl]-benzamide] | 70 |  |
| CC(C)Nc1ncnc2ccc(-c3cccc(CN(Cc4ccccc4)C(=O)c4cccnc4)c3)cc12 [Example 153, N-benzyl-N-[3-(4-isopropylamino-quinazolin-6-yl)-benzyl]-nicotinamide] | 63 |  |
| Cc1cc2ncnc(NC3CC3)c2cc1-c1cccc(CN(C(=O)Cc2ccccc2)C2CC2)c1 [Example 661, N-cyclopropyl-N-(3-(4-(cyclopropylamino)-7-methylquinazolin-6-yl)benzyl)-2-phenylacetamide] | 89 |  |
| O=C1CC2(CCCC2)CC(=O)N1Cc1cccc(-c2ccc3ncnc(NC4CC4)c3c2)c1 [Example 243, 8-[3-(4-cyclopropylamino-quinazolin-6-yl)-benzyl]-8-aza-spiro[4.5]decane-7,9-dione; hydrochloride] | 39 |  |
| COc1ccc(C(=O)N(Cc2cccc(-c3ccc4ncnc(NC5CC5)c4c3)c2)C2CC2)cc1OC [Example 158, N-cyclopropyl-N-[3-(4-cyclopropylamino-quinazolin-6-yl)-benzyl]-3,4-dimethoxy-benzamide] | 81 |  |
| O=C(c1cc2ccccc2cn1)N(Cc1cccc(-c2ccc3ncnc(NC4CC4)c3c2)c1)C1CC1 [Example 159, isoquinoline-3-carboxylic acid cyclopropyl-[3-(4-cyclopropylamino-quinazolin-6-yl)-benzyl]-amide] | 85 |  |
| O=C(c1ccco1)N(Cc1cccc(-c2ccc3ncnc(NC4CC4)c3c2)c1)C1CC1 [Example 169, furan-2-carboxylic acid cyclopropyl-[3-(4-cyclopropylamino-quinazolin-6-yl)-benzyl]-amide] | 91 |  |
| O=C(c1ccc(C(F)(F)F)cc1F)N(Cc1cc(-c2ccc3ncnc(NC4CC4)c3c2)ccc1F)C1CC1 [Example 397, N-cyclopropyl-N-(5-(4-(cyclopropylamino)quinazolin-6-yl)-2-fluorobenzyl)-2-fluoro-4-(trifluoromethyl)benzamide] | 87 |  |
| O=C(c1ccccc1)N(Cc1cccc(-c2ccc3ncnc(NC4CC4)c3c2)c1)C1CC1 [Example 274, N-cyclopropyl-N-(3-(4-(cyclopropylamino)quinazolin-6-yl)benzyl)benzamide] |  | IC50: 860 nM |
| CC(C)(C)Nc1ncnc2ccc(-c3ccc(F)c(CN(C(=O)c4ccco4)C4CC4)c3)cc12 [Example 807, N-(5-(4-(tert-butylamino)quinazolin-6-yl)-2-fluorobenzyl)-N-cyclopropyl furan-2-carboxamide] |  | % Inhibition of mGluR5 Receptor (pig) [^3H]-MPEP Bond at 10 μM: 90% |

The next lines start with results.

| inhibition at 10 µM [%] | Structure (SMILES) | other results |
| --- | --- | --- |
| 69 | Cc1cc(C(=O)N(Cc2cccc(-c3cc4c(NC5CC5)ncnc4cc3C)c2)C2CC2)n(C)n1 [Example 706, N-cyclopropyl-N-(3-(4-(cyclopropylamino)-7-methylquinazolin-6-yl)benzyl)-1,3-dimethyl-1H-pyrazole-5-carboxamide] |  |
| 90 | Cc1cc2ncnc(NC3CC3)c2cc1-c1cccc(CN(C2CC2)S(C)(=O)=O)c1 [Example 697, N-cyclopropyl-N-(3-(4-(cyclopropylamino)-7-methylquinazolin-6-yl)benzyl)methane sulfonamide] |  |
| 89 | Cc1cc2ncnc(NC3CC3)c2cc1-c1cccc(CN(C(=O)c2ccncc2)C2CC2)c1 [Example 707, N-cyclopropyl-N-(3-(4-(cyclopropylamino)-7-methylquinazolin-6-yl)benzyl)isonicotinamide] |  |
| 60 | CNc1ncnc2ccc(-c3cccc(CN(C(=O)c4cccc(F)c4)c4ccccc4F)c3)cc12 [Example 687, 3-fluoro-N-(2-fluorophenyl)-N-(3-(4-(methylamino)quinazolin-6-yl)benzyl)benzamide] |  |
| 81 | COc1ccc(C(=O)N(Cc2cccc(-c3cc(F)c4ncnc(NC5CC5)c4c3)c2)C2CC2)cc1OC [Example 700, N-cyclopropyl-N-(3-(4-(cyclopropylamino)-8-fluoroquinazolin-6-yl)benzyl)-3,4-dimethoxybenzamide] |  |
| 92 | O=C(c1c(F)c(F)c(F)c(F)c1F)N(Cc1cc(-c2ccc3ncnc(NC4CC4)c3c2)ccc1Cl)C1CC1 [Example 859, N-(2-chloro-5-(4-(cyclopropylamino)quinazolin-6-yl)benzyl)-N-cyclopropyl-2,3,4,5,6-pentafluorobenzamide] |  |
| 63 | O=C(c1cccc(C(F)(F)F)c1)N(Cc1cc(-c2ccc3ncnc(NC4CC4)c3c2)ccc1Cl)C1CC1 [Example 732, N-(2-chloro-5-(4-(cyclopropylamino)quinazolin-6-yl)benzyl)-N-cyclopropyl-3-(trifluoromethyl)benzamide] |  |
| 43 | Cc1cc2ncnc(NC3CC3)c2cc1-c1cccc(CN(C(=O)CN(C)C)C2CC2)c1 [Example 723, N-cyclopropyl-N-(3-(4-(cyclopropylamino)-7-methylquinazolin-6-yl)benzyl)-2-(dimethylamino)acetamide] |  |
